# Data from PMC9898036, “VIP152 is a selective CDK9 inhibitor with pre-clinical in vitro and in vivo efficacy in chronic lymphocytic leukemia” (Leukemia, 2022).
# Legend:
# Format in all cases: binding
# RIOK2 = RIOK2 (Homo sapiens, UniProt Q9BVS4); test: KINOMEscan: RIOK2; conditions: 100 nM, read-out: Percent Control
# LATS2 = LATS2 (Homo sapiens, UniProt Q9NRM7); test: KINOMEscan: LATS2; conditions: 1000 nM, read-out: Percent Control
# BRSK1 = BRSK1 (Homo sapiens, UniProt Q8TDC3); test: KINOMEscan: BRSK1; conditions: 1000 nM, read-out: Percent Control
# human kinome [1] = target: human kinome (Homo sapiens, UniProt Q6ZN16); test: DiscoverX KINOMEscan kinase profiling (468 assays); conditions: MAP3K15; 100 nM; read-out: Percent Control
# Protocol: (§1) Kinomescan Kinase Profiling Assay
# (§2) Kinomescan Assay was performed at DiscoverRX and described in Fabian, et al. 2005, Nat.
# (§3) Biotechnol. In brief, kinases were produced and subsequently tagged with DNA for qPCR detection.
# (§4) Streptavidin-coated magnetic beads were bound to biotinylated kinase ligands to serve as a solid support.
# (§5) VIP152 was dissolved in DMSO and tested across a 10 serial threefold dilution set and compared to a test
# (§6) compound and a DMSO control.
# (§7) Kinome map was produced via TreeSpot
# (§8) Analysis from DiscoverRX. […]
# human kinome [2] = target: human kinome (Homo sapiens, UniProt Q9UM73); test: DiscoverX KINOMEscan kinase profiling (468 assays); conditions: ALK; 100 nM; read-out: Percent Control
# Protocol: as §1, §2, §3, §4, §5, §6, §7, §8
# human kinome [3] = target: human kinome (Homo sapiens, UniProt Q9Y6R4); test: DiscoverX KINOMEscan kinase profiling (468 assays); conditions: MAP3K4; 100 nM; read-out: Percent Control
# Protocol: as §1, §2, §3, §4, §5, §6, §7, §8
# human kinome [4] = target: human kinome (Homo sapiens, UniProt Q13043); test: DiscoverX KINOMEscan kinase profiling (468 assays); conditions: MST1 (Entrez STK4); 100 nM; read-out: Percent Control
# human kinome (Homo sapiens, UniProt Q13043), sequence (Q13043 whole entry): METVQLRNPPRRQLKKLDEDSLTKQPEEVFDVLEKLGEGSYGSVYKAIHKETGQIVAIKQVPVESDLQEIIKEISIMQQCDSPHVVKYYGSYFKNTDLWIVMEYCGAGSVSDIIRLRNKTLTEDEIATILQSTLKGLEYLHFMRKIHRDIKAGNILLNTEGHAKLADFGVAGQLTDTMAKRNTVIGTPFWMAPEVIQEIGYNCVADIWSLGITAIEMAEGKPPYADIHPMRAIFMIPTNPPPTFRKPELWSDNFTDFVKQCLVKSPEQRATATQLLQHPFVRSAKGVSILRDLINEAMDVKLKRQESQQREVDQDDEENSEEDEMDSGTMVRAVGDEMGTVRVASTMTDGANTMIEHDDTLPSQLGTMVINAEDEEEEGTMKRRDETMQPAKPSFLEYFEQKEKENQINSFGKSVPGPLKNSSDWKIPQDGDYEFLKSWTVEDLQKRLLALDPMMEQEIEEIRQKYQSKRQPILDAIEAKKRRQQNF
# Protocol: as §1, §2, §3, §4, §5, §6, §7, §8
# human kinome [5] = target: human kinome (Homo sapiens, UniProt Q96GD4); test: DiscoverX KINOMEscan kinase profiling (468 assays); conditions: AURKB; 100 nM; read-out: Percent Control
# Protocol: as §1, §2, §3, §4, §5, §6, §7, §8
# human kinome [6] = target: human kinome (Homo sapiens, UniProt Q9Y2H1); test: DiscoverX KINOMEscan kinase profiling (468 assays); conditions: read-out: Percent Control
# human kinome (Homo sapiens, UniProt Q9Y2H1), sequence (Q9Y2H1 whole entry): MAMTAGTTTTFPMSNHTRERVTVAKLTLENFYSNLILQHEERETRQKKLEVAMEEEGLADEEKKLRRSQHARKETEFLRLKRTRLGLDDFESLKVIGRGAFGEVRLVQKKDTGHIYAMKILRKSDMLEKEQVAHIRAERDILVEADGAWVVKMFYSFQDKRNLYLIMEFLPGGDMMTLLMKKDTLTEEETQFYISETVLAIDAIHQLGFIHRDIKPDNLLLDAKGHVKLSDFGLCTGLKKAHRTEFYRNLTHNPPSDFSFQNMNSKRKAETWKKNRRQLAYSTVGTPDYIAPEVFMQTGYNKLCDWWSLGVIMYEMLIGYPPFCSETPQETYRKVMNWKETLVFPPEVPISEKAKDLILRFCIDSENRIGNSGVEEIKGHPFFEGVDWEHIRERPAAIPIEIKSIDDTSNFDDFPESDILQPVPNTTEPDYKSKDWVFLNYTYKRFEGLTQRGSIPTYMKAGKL
# Protocol: as §1, §2, §3, §4, §5, §6, §7, §8
# human kinome [7] = target: human kinome (Homo sapiens, UniProt P53355); test: DiscoverX KINOMEscan kinase profiling (468 assays); conditions: DAPK1; 100 nM; read-out: Percent Control
# Protocol: as §1, §2, §3, §4, §5, §6, §7, §8
# human kinome [8] = target: human kinome (Homo sapiens, UniProt P10721, A829P); test: DiscoverX KINOMEscan kinase profiling (468 assays); conditions: KIT(A829P); 100 nM; read-out: Percent Control
# Protocol: as §1, §2, §3, §4, §5, §6, §7, §8
# human kinome [9] = target: human kinome (Homo sapiens, UniProt Q8NEV4); test: DiscoverX KINOMEscan kinase profiling (468 assays); conditions: read-out: Percent Control
# human kinome (Homo sapiens, UniProt Q8NEV4), sequence (Q8NEV4 whole entry): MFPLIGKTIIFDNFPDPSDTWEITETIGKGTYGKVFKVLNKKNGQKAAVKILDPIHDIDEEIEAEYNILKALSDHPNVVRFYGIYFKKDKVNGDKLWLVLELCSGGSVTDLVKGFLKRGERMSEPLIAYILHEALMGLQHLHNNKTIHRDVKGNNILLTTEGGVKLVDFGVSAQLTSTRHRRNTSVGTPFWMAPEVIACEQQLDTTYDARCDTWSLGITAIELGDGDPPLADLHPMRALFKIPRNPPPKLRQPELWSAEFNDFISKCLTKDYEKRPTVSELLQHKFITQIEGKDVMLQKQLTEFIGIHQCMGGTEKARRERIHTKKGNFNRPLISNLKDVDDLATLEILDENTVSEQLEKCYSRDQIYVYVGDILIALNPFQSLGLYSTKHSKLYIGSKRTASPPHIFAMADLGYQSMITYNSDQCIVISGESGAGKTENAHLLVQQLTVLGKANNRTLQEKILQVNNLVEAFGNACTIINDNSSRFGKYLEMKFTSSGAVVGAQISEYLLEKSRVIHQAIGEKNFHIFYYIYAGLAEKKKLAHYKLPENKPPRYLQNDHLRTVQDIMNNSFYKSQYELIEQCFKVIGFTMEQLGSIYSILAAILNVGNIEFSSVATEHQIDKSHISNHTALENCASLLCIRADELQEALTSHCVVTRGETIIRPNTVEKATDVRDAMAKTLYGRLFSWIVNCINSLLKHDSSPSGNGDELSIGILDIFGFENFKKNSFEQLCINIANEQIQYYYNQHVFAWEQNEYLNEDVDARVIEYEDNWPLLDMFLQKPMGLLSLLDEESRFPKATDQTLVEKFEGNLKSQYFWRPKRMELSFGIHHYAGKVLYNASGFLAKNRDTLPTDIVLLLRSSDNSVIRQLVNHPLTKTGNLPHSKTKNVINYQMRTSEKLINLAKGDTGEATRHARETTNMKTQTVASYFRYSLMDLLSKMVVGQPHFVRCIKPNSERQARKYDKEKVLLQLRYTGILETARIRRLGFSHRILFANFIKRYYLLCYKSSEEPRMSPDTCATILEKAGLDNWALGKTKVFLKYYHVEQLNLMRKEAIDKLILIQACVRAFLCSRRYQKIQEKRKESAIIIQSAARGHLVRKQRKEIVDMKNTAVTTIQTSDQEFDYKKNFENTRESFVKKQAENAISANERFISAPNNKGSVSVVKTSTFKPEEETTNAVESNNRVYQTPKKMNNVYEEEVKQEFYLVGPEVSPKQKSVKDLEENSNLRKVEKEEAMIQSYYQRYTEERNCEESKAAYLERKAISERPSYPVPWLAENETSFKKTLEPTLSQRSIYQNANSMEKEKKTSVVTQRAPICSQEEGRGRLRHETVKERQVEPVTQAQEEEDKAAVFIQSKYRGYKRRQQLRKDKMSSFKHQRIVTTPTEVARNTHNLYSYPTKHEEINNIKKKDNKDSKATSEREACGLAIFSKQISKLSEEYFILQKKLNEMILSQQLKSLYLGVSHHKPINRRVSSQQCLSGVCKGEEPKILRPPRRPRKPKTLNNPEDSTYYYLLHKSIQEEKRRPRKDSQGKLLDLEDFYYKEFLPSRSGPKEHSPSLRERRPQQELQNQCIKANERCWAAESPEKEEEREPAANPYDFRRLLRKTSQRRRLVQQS
# Protocol: as §1, §2, §3, §4, §5, §6, §7, §8
# human kinome [10] = target: human kinome (Homo sapiens, UniProt Q92630); test: DiscoverX KINOMEscan kinase profiling (468 assays); conditions: DYRK2; 100 nM; read-out: Percent Control
# Protocol: as §1, §2, §3, §4, §5, §6, §7, §8
# human kinome [11] = target: human kinome (Homo sapiens, UniProt Q96PY6); test: DiscoverX KINOMEscan kinase profiling (468 assays); conditions: read-out: Percent Control
# human kinome (Homo sapiens, UniProt Q96PY6), sequence (Q96PY6 whole entry): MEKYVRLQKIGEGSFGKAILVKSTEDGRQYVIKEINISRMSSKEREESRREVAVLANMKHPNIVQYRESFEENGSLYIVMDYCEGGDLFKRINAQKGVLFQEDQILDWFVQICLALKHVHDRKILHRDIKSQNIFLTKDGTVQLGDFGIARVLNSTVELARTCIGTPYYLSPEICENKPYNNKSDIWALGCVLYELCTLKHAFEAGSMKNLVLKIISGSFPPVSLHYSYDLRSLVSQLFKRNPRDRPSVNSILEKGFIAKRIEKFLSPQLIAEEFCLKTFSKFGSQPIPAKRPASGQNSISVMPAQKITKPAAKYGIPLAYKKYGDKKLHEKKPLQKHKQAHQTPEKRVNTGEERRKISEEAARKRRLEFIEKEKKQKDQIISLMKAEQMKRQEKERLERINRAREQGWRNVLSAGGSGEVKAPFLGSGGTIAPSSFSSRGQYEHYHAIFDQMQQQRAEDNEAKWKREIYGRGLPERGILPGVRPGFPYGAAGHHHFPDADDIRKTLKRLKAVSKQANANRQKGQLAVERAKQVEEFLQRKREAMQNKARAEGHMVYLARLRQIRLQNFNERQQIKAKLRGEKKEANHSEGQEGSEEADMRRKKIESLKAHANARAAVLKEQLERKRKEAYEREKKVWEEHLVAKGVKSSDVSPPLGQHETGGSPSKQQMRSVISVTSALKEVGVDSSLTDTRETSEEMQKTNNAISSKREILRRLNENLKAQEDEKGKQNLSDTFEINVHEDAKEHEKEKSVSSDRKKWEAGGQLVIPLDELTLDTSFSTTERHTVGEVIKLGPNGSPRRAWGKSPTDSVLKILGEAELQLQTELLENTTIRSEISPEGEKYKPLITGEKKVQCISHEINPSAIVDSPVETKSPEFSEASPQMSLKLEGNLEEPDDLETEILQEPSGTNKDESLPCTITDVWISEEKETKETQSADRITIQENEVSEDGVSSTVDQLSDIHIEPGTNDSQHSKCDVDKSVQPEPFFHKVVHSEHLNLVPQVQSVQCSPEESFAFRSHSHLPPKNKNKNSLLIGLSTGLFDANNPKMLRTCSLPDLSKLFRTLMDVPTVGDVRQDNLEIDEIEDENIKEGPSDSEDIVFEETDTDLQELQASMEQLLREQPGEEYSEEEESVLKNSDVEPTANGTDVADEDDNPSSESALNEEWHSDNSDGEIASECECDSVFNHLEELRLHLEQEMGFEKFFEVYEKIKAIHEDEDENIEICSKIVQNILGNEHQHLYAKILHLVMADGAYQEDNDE
# Protocol: as §1, §2, §3, §4, §5, §6, §7, §8
# ERBB2 = ERBB2 (Homo sapiens, UniProt P04626); test: KINOMEscan: ERBB2
# ERBB2, sequence (P04626 23-1255): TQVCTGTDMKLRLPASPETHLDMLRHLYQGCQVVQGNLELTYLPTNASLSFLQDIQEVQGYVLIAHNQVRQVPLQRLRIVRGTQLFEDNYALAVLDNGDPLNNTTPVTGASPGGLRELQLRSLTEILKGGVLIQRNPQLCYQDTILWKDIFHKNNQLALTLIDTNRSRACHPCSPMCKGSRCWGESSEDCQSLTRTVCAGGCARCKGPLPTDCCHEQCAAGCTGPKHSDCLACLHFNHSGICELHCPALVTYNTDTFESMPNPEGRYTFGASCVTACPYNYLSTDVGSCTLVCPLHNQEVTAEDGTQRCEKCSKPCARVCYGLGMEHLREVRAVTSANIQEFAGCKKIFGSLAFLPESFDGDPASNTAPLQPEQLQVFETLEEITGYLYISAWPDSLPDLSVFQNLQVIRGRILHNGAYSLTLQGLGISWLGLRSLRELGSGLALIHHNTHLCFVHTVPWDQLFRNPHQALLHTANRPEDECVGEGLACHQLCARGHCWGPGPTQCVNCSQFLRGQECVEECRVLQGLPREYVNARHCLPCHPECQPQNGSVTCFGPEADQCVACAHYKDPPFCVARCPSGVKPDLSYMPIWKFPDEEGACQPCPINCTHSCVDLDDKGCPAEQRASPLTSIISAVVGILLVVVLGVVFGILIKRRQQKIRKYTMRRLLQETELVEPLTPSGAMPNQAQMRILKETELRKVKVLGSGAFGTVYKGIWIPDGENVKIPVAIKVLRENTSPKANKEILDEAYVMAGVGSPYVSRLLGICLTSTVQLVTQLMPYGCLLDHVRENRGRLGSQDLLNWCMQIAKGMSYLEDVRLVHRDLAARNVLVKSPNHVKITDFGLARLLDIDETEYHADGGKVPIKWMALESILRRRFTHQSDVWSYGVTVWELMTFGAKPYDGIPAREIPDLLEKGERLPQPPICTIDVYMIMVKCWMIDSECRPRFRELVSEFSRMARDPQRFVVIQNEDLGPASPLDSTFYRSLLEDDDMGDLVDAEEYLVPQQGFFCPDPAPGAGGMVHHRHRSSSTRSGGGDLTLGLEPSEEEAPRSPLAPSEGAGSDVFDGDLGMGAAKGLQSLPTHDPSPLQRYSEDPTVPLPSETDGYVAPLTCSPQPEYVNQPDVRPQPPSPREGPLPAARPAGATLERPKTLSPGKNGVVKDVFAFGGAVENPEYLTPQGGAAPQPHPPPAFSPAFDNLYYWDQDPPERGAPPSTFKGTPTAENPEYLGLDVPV
# Protocol: The structure and synthesis of VIP152 were recently described by Lücking et al.. (Fig. 1A); however, the selectivity of the molecule in cellular systems has yet to be explored. […] We also performed this experiment at 1000 nM, where CDK9 was inhibited at 99%. […] We found a strong concordance between our data and those of Lücking when comparing the most inhibited kinases. Potential off-target effects of VIP152 were next tested in vitro at a concentration of 10 µM for off-target activity against a broad range of receptors, transporters, ion channels, and enzymes (n = 138) using the Eurofins Diversity Panel.
# as §1, §2, §3, §4
# VIP152 was dissolved in DMSO and tested across a 10 serial threefold dilution set and compared to a test compound and a DMSO control. Kinases which were inhibited by VIP152 would not be bound to the solid-support resulting in decreased substrate for the qPCR reaction. Kinome map was produced via TreeSpot Analysis from DiscoverRX. […]
# NanoBRETTM Target Engagement Assay Protocol […]
# HEK293 cells were grown to 70-80% confluence appropriately prior to assay and subsequently trypsinized. Lipid:DNA complexes were prepared as follows. A 10µg/mL solution of DNA in Opti-MEM without serum consisting of the following ratios of carrier DNA and DNA encoding NanoLuc fusion were prepared.
# 9.0µg/mL of Transfection Carrier DNA, 1.0µg/mL of NanoLuc fusion vector DNA, and 1mL of Opti-MEM without phenol red. The solution was mixed thoroughly. Next, 30µL of FuGENE HD Transfection Reagent was added into each mL of DNA mixture to form the lipid:DNA complex and mixed by inversion 10 times followed by a 20 minute incubation at room temperature. […]
# CTK = CTK (Homo sapiens, UniProt P42679); test: KINOMEscan: CTK; conditions: 1000 nM, read-out: Percent Control
# Melatonin MT1 = Melatonin MT1 (Homo sapiens, UniProt P48039); test: Eurofins Diversity Panel; conditions: hum, Conc. 10 μM
# BMPR2 = BMPR2 (Homo sapiens, UniProt Q13873); test: KINOMEscan: BMPR2; conditions: 1000 nM, read-out: Percent Control
# ROS1 = ROS1 (Homo sapiens, UniProt P08922); test: KINOMEscan: ROS1; conditions: 100 nM, read-out: Percent Control
# ERK4 = ERK4 (Homo sapiens, UniProt P31152); test: KINOMEscan: ERK4; conditions: 1000 nM, read-out: Percent Control
# BUB1 = BUB1 (Homo sapiens, UniProt O43683); test: KINOMEscan: BUB1; conditions: 1000 nM, read-out: Percent Control
smiles,measurement,setting,value
COc1cc(F)ccc1-c1cc(Nc2cc(CS(C)(=N)=O)ccn2)ncc1F (centres unmarked) [VIP152],remaining binding at 0.1 µM,RIOK2,100%
same,remaining binding at 1 µM,LATS2,97%
same,remaining binding at 1 µM,BRSK1,83%
same,remaining binding at 0.1 µM,human kinome [1],100%
same,remaining binding at 0.1 µM,human kinome [2],100%
same,remaining binding at 0.1 µM,human kinome [3],100%
same,remaining binding at 0.1 µM,human kinome [4],99%
same,remaining binding at 0.1 µM,human kinome [5],99%
same,remaining binding at 0.1 µM,"human kinome [6]; NDR2 (Entrez STK38L), 100 nM",100%
same,remaining binding at 1 µM,"human kinome [6]; kinase NDR2 (Entrez STK38L), compound concentration 1000 nM",100%
same,remaining binding at 0.1 µM,human kinome [7],100%
same,remaining binding at 0.1 µM,human kinome [8],100%
same,remaining binding at 0.1 µM,"human kinome [9]; MYO3A, 100 nM",100%
same,remaining binding at 1 µM,"human kinome [9]; kinase MYO3A (Entrez MYO3A), compound concentration 1000 nM",90%
same,remaining binding at 0.1 µM,human kinome [10],99%
same,remaining binding at 0.1 µM,"human kinome [11]; NEK1, 100 nM",100%
same,remaining binding at 1 µM,"human kinome [11]; kinase NEK1 (Entrez NEK1), compound concentration 1000 nM",99%
same,inhibition at 0.1 µM,"ERBB2; 100 nM, read-out: inhibition of ERBB2 relative to control",65%
same,remaining binding at 0.1 µM,"ERBB2; ERBB2, 100 nM, read-out: Percent Control",35%
same,remaining binding at 1 µM,"ERBB2; ERBB2, 1000 nM, read-out: Percent Control",100%
same,remaining binding at 1 µM,CTK,84%
same,inhibition at 10 µM,Melatonin MT1,6%
same,remaining binding at 1 µM,BMPR2,93%
same,remaining binding at 0.1 µM,ROS1,100%
same,remaining binding at 1 µM,ERK4,99%
same,remaining binding at 1 µM,BUB1,7.1%
